Blank lines part the entries; values can stand above or below the molecule they belong to.
Assays:
Integrin alpha2/beta1 = Integrin alpha2/beta1 (Homo sapiens, UniProt P05556+P17301); test: Antagonist activity at recombinant integrin alpha2 beta1 receptor (unknown origin) assessed as inhibition of interaction with biotinylated collagen type-1 after 3 hrs by solid phase ELISA-type assay; type: protein-complex assay
[1] = Permeability across human Caco2 cells; type: ADME, cell-based; conditions: Caco-2, read-out: permeability
[2] = Plasma concentration in Sprague-Dawley rat at 4.8 mg/kg, iv administered as bolus dose measured after 1 hr by LC-MS/MS analysis; type: ADME, organism-based; design: dose 4.8 mg/kg, route intravenous
[3] = Drug excretion in Sprague-Dawley rat bile at 5 mg/kg, iv administered as bolus dose measured after 2 hrs by LC-MS/MS analysis; type: ADME, organism-based; design: dose 5 mg/kg, route intravenous; conditions: read-out: Drug excretion
[4] = Drug excretion in Sprague-Dawley rat urine at 4.8 mg/kg, iv administered as bolus dose measured after 24 hrs by LC-MS/MS analysis; type: ADME, organism-based; design: dose 4.8 mg/kg, route intravenous; conditions: read-out: Drug excretion
[5] = Volume of distribution at steady state in Sprague-Dawley rat at 4.8 mg/kg, iv administered as bolus dose by LC-MS/MS analysis; type: ADME, organism-based; design: dose 4.8 mg/kg, route intravenous; conditions: in vivo, read-out: Vdss
[6] = Initial plasma concentration in Sprague-Dawley rat at 4.8 mg/kg, iv administered as bolus dose by LC-MS/MS analysis; type: ADME, organism-based; design: dose 4.8 mg/kg, route intravenous
[7] = Half life in Sprague-Dawley rat at 4.8 mg/kg, iv administered as bolus dose by LC-MS/MS analysis; type: ADME, organism-based; design: dose 4.8 mg/kg, route intravenous; conditions: in vivo
[8] = molecular target: Voltage-gated inwardly rectifying potassium channel KCNH2 (Homo sapiens, UniProt Q12809); test: Inhibition of human ERG expressed in CHO cells by patch clamp assay; type: cell-based
Chain of Voltage-gated inwardly rectifying potassium channel KCNH2 (Q12809 whole entry): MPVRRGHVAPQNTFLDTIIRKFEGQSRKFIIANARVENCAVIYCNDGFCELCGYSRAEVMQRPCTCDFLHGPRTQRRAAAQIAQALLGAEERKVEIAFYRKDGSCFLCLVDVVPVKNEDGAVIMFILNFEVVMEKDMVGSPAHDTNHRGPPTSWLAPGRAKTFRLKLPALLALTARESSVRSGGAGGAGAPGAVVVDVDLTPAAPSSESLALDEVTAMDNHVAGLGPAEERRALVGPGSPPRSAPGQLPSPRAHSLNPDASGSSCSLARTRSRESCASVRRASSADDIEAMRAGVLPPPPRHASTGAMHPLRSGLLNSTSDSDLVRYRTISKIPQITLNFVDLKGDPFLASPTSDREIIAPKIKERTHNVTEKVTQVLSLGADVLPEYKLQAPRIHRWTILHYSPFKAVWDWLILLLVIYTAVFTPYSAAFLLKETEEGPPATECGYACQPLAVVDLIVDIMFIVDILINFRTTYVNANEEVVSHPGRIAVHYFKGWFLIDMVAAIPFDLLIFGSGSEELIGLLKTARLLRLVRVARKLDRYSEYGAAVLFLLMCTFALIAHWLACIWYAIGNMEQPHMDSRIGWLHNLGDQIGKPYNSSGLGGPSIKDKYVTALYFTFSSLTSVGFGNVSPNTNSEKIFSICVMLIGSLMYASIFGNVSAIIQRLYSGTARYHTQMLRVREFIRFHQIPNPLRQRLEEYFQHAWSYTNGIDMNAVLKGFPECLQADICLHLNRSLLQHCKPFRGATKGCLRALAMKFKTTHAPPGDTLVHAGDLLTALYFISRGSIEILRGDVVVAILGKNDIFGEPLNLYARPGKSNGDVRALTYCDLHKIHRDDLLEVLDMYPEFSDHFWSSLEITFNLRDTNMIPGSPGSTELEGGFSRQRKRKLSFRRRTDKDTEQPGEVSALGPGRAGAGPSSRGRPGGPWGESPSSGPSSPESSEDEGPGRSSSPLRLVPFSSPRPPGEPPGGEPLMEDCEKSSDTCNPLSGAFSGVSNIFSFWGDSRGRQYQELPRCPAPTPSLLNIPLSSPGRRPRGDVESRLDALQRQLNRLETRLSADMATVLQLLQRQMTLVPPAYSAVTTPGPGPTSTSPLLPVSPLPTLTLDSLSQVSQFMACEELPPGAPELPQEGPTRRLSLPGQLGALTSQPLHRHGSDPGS

Cytochrome P450 3A4 [9] = molecular target: T1, Cytochrome P450 3A4 (Homo sapiens, UniProt P08684); test: Induction of CYP3A4 activity (unknown origin) relative to control; type: ADME
T1 sequence (P08684 whole entry): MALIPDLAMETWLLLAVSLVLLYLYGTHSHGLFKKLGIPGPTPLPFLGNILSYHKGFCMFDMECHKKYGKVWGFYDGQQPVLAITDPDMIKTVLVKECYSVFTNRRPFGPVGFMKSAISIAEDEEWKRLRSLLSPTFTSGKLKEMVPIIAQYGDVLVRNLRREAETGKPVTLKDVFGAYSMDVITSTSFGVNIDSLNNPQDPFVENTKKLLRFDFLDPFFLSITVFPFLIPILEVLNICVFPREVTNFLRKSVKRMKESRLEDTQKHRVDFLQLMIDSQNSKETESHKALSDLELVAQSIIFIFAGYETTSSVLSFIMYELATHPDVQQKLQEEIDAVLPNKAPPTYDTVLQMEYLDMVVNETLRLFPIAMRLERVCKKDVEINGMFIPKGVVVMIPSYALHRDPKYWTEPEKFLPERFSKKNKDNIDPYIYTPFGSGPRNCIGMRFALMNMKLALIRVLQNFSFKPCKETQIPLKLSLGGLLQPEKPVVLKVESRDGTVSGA

Cytochrome P450 1A2 = molecular target: T2, Cytochrome P450 1A2 (Homo sapiens, UniProt P05177); test: Induction of CYP1A2 activity (unknown origin) relative to control; type: ADME
T2 sequence (P05177 whole entry): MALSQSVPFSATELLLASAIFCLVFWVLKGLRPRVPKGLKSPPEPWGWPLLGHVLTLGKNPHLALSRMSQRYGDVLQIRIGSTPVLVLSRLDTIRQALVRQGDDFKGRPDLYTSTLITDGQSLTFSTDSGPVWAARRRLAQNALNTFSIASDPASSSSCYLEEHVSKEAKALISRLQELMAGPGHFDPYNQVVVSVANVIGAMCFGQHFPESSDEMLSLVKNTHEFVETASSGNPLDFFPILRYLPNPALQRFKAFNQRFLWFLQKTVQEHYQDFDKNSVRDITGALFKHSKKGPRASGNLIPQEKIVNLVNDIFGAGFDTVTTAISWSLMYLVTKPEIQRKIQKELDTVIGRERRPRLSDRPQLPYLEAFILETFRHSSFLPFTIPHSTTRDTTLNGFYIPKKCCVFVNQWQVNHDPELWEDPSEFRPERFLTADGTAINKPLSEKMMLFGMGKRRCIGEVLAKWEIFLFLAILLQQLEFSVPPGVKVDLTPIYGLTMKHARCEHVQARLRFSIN

Cytochrome P450 1A1 = molecular target: T3, Cytochrome P450 1A1 (Homo sapiens, UniProt P04798); test: Induction of CYP1A1 activity (unknown origin) relative to control; type: ADME
T3 sequence (P04798 whole entry): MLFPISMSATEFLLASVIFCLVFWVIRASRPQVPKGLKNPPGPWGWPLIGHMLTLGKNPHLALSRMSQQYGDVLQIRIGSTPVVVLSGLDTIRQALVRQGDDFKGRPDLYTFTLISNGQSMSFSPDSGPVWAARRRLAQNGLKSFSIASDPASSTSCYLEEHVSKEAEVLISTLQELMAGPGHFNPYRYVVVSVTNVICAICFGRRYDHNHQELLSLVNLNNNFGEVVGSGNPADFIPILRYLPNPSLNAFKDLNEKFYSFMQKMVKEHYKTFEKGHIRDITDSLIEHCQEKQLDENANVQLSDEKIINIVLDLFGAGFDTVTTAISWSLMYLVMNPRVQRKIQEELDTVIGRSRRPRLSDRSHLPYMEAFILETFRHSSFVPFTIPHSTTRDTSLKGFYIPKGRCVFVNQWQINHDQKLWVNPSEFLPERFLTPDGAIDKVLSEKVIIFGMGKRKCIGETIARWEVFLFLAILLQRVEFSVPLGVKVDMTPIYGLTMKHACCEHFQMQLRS

Cytochrome P450 3A4 [10] = molecular target: T1, Cytochrome P450 3A4; test: Inhibition of CYP3A4 (unknown origin) after 10 to 30 mins; type: ADME
Plasma [11] = test: Metabolic stability in rat plasma at 100 ng/mL measured after 4 hrs; type: ADME, cell-free
Plasma [12] = test: Metabolic stability in mouse plasma at 100 ng/mL measured after 4 hrs; type: ADME, cell-free
[13] = Drug metabolism in Swiss CD-1 mouse liver microsomes at 5 uM after 20 mins; type: ADME, Microsome; conditions: read-out: Drug metabolism
Plasma [14] = test: Metabolic stability in human plasma at 100 ng/mL measured after 4 hrs; type: ADME, cell-free
[15] = Drug metabolism in Sprague-Dawley rat liver microsomes at 5 uM after 20 mins; type: ADME; conditions: read-out: Drug metabolism
[16] = Drug metabolism in human liver microsomes at 5 uM after 20 mins; type: ADME; conditions: read-out: Drug metabolism
[17] = Solubility of the compound at pH 7.4 at 25 degC; type: physicochemical; conditions: buffer
[18] = Lipophilicity, log D of the compound at pH 7.4 at 25 degC; type: physicochemical; conditions: buffer
Integrin alpha-5/beta-1 = Integrin alpha-5/beta-1 (Homo sapiens, UniProt P05556+P08648); test: Antagonist activity at integrin alpha5beta1 receptor (unknown origin) assessed as inhibition of interaction with biotinylated collagen type-1 after 3 hrs by solid phase ELISA-type assay; type: protein-complex assay
[19] = molecular target: Integrin alpha1/beta1 complex (Homo sapiens, UniProt P05556+P56199); test: Antagonist activity at integrin alpha1beta1 receptor (unknown origin) assessed as inhibition of interaction with biotinylated collagen type-1 after 3 hrs by solid phase ELISA-type assay; type: protein-complex assay
Chain of Integrin alpha1/beta1 complex (P05556 whole entry): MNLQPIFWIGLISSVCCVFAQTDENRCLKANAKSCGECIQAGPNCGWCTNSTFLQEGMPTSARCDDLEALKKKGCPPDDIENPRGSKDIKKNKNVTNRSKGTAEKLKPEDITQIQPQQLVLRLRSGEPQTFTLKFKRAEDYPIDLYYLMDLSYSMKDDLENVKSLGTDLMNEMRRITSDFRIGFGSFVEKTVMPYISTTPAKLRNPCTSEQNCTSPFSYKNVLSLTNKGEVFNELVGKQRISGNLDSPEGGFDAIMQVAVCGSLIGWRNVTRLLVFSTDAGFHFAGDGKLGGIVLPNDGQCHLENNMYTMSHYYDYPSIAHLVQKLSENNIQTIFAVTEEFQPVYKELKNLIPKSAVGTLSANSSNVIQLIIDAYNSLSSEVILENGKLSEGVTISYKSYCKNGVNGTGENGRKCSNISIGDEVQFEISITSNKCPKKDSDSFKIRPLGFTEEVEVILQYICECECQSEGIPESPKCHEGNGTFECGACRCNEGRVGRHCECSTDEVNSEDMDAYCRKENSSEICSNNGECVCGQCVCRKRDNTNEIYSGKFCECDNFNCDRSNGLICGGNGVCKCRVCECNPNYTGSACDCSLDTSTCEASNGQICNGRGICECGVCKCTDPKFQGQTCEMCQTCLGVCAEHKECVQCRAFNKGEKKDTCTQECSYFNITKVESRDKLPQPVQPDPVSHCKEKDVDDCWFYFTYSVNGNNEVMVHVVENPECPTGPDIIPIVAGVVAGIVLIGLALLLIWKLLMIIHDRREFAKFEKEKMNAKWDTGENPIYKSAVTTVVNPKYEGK
Chain of Integrin alpha1/beta1 complex (P56199 whole entry): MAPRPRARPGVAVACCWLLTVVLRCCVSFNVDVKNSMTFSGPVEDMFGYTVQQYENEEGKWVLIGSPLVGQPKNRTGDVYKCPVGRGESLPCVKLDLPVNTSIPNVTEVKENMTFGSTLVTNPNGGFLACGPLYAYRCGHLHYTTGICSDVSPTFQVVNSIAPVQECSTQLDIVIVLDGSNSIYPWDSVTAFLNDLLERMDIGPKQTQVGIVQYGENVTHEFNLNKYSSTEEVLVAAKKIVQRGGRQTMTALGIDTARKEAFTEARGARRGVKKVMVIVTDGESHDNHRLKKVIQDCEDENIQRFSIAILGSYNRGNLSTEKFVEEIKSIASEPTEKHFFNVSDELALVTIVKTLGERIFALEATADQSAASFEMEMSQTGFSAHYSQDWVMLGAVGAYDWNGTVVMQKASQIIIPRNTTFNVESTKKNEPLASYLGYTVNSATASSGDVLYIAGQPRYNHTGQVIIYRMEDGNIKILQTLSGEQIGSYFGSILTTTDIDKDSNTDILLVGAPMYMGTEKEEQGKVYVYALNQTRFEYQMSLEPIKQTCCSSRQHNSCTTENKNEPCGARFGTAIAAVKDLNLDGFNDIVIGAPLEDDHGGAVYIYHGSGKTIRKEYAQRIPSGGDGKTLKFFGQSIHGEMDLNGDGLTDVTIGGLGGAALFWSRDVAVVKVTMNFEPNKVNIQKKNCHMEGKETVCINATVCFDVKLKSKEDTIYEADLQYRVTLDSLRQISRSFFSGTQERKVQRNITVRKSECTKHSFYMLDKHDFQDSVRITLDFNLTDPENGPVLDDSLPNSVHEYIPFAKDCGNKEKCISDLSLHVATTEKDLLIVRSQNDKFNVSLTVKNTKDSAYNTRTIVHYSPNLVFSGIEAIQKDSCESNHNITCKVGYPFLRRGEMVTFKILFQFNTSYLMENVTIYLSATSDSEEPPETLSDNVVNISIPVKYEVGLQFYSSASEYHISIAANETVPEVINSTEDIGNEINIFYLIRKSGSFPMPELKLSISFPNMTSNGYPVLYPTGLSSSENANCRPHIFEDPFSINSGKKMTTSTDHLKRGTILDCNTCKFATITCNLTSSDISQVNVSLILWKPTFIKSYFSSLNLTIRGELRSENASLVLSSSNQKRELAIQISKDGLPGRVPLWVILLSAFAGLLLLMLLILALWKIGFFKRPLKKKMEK

Chain of Integrin alpha2/beta1 (P05556 whole entry): as the sequence (P05556 whole entry) above
Chain of Integrin alpha2/beta1 (P17301 whole entry): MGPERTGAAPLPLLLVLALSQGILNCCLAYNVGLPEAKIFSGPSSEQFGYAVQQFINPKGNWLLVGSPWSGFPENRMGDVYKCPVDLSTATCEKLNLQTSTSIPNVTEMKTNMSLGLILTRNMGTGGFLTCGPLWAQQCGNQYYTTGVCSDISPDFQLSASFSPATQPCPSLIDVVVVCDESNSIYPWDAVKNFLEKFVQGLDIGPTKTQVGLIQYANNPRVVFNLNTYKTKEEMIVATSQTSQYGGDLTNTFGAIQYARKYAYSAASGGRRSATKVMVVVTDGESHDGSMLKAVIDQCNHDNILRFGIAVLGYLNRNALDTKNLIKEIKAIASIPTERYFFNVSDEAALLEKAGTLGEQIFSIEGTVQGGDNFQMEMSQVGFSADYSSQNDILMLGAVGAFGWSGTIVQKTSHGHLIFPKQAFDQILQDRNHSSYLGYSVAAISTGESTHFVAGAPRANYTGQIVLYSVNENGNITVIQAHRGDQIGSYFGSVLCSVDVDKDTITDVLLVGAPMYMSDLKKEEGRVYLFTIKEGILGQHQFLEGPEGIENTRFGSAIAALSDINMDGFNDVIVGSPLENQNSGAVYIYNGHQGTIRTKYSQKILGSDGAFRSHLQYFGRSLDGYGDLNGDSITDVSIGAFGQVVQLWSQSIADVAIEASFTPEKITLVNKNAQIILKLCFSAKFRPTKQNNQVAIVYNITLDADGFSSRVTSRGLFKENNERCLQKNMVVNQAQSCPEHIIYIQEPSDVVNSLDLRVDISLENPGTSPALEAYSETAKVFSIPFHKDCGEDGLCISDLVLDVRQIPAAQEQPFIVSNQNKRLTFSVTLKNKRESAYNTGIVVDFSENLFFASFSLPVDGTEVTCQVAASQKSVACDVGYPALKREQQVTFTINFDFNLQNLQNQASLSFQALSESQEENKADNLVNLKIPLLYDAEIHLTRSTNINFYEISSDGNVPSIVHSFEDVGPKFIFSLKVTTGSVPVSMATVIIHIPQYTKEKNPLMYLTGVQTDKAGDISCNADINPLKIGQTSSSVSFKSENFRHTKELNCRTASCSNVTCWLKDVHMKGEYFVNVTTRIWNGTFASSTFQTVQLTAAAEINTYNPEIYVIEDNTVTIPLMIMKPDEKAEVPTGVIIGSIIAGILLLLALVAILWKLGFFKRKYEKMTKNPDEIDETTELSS

IC50 (Integrin alpha2/beta1): 0.497 µM
SMILES: O=C1N[C@H](C(=O)O)Cc2cn(nn2)CCCCOc2ccc(Cl)c1c2

IC50 (Integrin alpha2/beta1): > 1 µM
SMILES: O=C1N[C@H](C(=O)O)Cc2cccc(n2)NC/C=C/COc2ccc(Cl)c1c2

SMILES: O=C1N[C@H](C(=O)O)Cc2cccc(c2)OC/C=C/COc2ccc1c(F)c2
IC50 (Integrin alpha2/beta1): > 1 µM

SMILES: O=C1N[C@H](C(=O)O)Cc2cccc(c2)OCCCCOc2ccc1c(F)c2
IC50 (Integrin alpha2/beta1): > 4 µM

IC50 (Integrin alpha2/beta1): > 1 µM
SMILES: O=C1N[C@H](C(=O)O)Cc2cccc(n2)NCCCCOc2ccc(Cl)c1c2

IC50 (Integrin alpha2/beta1): 0.667 µM
SMILES: O=C1N[C@H](C(=O)O)Cc2cccc(c2)OC/C=C/COc2ccc([N+](=O)[O-])c1c2

IC50 (Integrin alpha2/beta1): > 5 µM
SMILES: O=C1NC(C(=O)O)CCc2cn(cn2)C/C=C/COc2ccc(Cl)c1c2 (racemic)

Papp [1]: > 20 nm/s
SMILES: COC(=O)[C@@H]1Cc2cn(cn2)C/C=C/COc2ccc(Cl)c(c2)C(=O)N1

IC50 (Integrin alpha2/beta1): > 5 µM
SMILES: O=C1NC(C(=O)O)CCc2cn(cn2)CCCCOc2ccc(Cl)c1c2 (racemic)

IC50 (Integrin alpha2/beta1): 0.034 µM
SMILES: O=C1N[C@H](C(=O)O)Cc2cn(nn2)C/C=C/COc2ccc(Cl)c1c2

IC50 (Integrin alpha2/beta1): > 1 µM
SMILES: O=C1N[C@H](C(=O)O)Cc2cccc(c2)OCCCCOc2cccc(F)c21

IC50 (Integrin alpha2/beta1): 0.869 µM
SMILES: O=C1N[C@H](C(=O)O)Cc2cn(cn2)C/C=C/COc2ccc(Cl)c1c2Cl

SMILES: O=C1N[C@H](C(=O)O)Cc2ccc(cc2)OC/C=C/COc2ccc(Cl)c1c2
IC50 (Integrin alpha2/beta1): 0.101 µM

SMILES: O=C1N[C@H](C(=O)O)Cc2cn(cn2)C/C=C/COc2ccc1c(Cl)c2 (mixture of isomers)
IC50 (Integrin alpha2/beta1): 0.47 µM

IC50 (Integrin alpha2/beta1): > 1 µM
SMILES: O=C1N[C@H](C(=O)O)Cc2cccc(c2)OC/C=C/COc2cccc(F)c21

IC50 (Integrin alpha2/beta1): > 4 µM
SMILES: O=C1N[C@@H](C(=O)O)Cc2cn(cn2)CCCCOc2ccc(Cl)c1c2

SMILES: O=C1N[C@H](C(=O)O)Cc2ccc(nc2)OCCCCOc2ccc(Cl)c1c2
IC50 (Integrin alpha2/beta1): 0.792 µM

SMILES: O=C1N[C@H](C(=O)O)Cc2ccc(cc2)OC/C=C/COc2cccc(Cl)c21
IC50 (Integrin alpha2/beta1): 0.178 µM

SMILES: O=C1N[C@H](C(=O)O)Cc2cccc(c2)OCCCCOc2ccc1c(Cl)c2
IC50 (Integrin alpha2/beta1): 0.114 µM

IC50 (Integrin alpha2/beta1): 0.588 µM
SMILES: O=C1N[C@H](C(=O)O)Cc2cccc(c2)OC/C=C/COc2cccc(Cl)c21

IC50 (Integrin alpha2/beta1): 0.366 µM
SMILES: O=C1N[C@H](C(=O)O)Cc2cn(cn2)CCCCOc2ccc(Cl)c1c2

IC50 (Integrin alpha2/beta1): 0.978 µM
SMILES: O=C1N[C@H](C(=O)O)Cc2cccc(c2)OCCCCOc2cccc(Cl)c21

concentration at 1 h [2]: < 0.01 µg/mL
dose excreted at 2 h [3]: 50%
dose excreted at 24 h [4]: 24%
Vd [5]: 3.6 L/kg
C0 [6]: 1.7 µg/mL
half-life [7]: 14.4 min
Activity (Cytochrome P450 3A4 [9]): < 10%
Activity (Cytochrome P450 1A2): < 10%
Activity (Cytochrome P450 1A1): < 10%
IC50 (Cytochrome P450 3A4 [10]): > 30 µM
Papp [1]: 1 nm/s
Stability (Plasma [11]): Stable
Stability (Plasma [12]): Stable
metabolised at 20 min, 5 µM [13]: 0%
Stability (Plasma [14]): Stable
metabolised at 20 min, 5 µM [15]: 0%
metabolised at 20 min, 5 µM [16]: 3%
solubility [17]: 1.54 mg/mL
logD [18]: 0.05
IC50 (Integrin alpha-5/beta-1): 0.074 µM
IC50 [19]: 0.033 µM
IC50 (Integrin alpha2/beta1): 0.004 µM
SMILES: Cl.O=C1N[C@H](C(=O)O)Cc2cn(cn2)C/C=C/COc2ccc(Cl)c1c2
IC50 [8]: > 10 µM
